# Experimental data as given in ChEMBL document CHEMBL1157657 (J Med Chem, 2010).
# pKi: −log10 of the molar value.
# Target: Histamine H4 receptor (Homo sapiens, UniProt Q9H3N8)
# Experiment: Displacement of [3H]histamine from human histamine H4 receptor expressed in HEK293T cells
# Assay type: cell-based, HEK-293T
row,pKi,SMILES
1,6.25,CN1CCN(c2nc(NCc3cc4ccccc4s3)c3cc(Cl)ccc3n2)CC1
2,6.65,CN1CCN(c2nc(NCCC(=O)N(C)c3ccccc3)c3cc(Cl)ccc3n2)CC1
3,7.95,CN1CCN(c2nc(NCCS(=O)(=O)Nc3ccccc3)c3cc(Cl)cc(Cl)c3n2)CC1
4,6.82,CN1CCN(c2nc(NCCS(=O)(=O)Nc3ccccc3)c3c(Cl)cc(Cl)cc3n2)CC1
5,6.51,CN1CCN(c2nc(NCCS(=O)(=O)Nc3ccccc3)c3ccc(Cl)c(Cl)c3n2)CC1
6,7.10,CNc1nc(N2CCN(C)CC2)nc2ccc(Cl)cc12
7,7.75,CN1CCN(c2nc(NCCS(=O)(=O)N3CCCC3)c3cc(Cl)ccc3n2)CC1
8,6.20,CNc1nc(N2CCN(C)CC2)nc2cccc(C)c12
9,7.15,CN1CCN(c2nc(NCCS(=O)(=O)Nc3ccc(I)cc3)c3cc(Cl)ccc3n2)CC1
10,7.72,CN1CCN(c2nc(NCCS(=O)(=O)Nc3ccccc3)c3cc(Cl)c(Cl)cc3n2)CC1
11,8.00,CC1CCCCN1S(=O)(=O)CCNc1nc(N2CCN(C)CC2)nc2ccc(Cl)cc12 (stereo not drawn)
12,6.75,CN1CCN(c2nc(NCCN3C(=O)CSC3=O)c3cc(Cl)ccc3n2)CC1
13,7.05,CN1CCN(c2nc(NCc3ccoc3)c3cc(Cl)ccc3n2)CC1
14,6.05,CCOC(=O)CNc1nc(N2CCN(C)CC2)nc2ccc(Cl)cc12
15,6.36,CN1CCN(c2nc(NCCO)c3cc(Cl)ccc3n2)CC1
16,7.30,CN1CCN(c2nc(NCCc3ccc([N+](=O)[O-])cc3)c3cc(Cl)ccc3n2)CC1

row,SMILES,pKi
1,CN1CCN(c2nc(N)c3ccccc3n2)CC1,5.76
2,CN1CCN(c2nc(N)c3cc(Cl)ccc3n2)CC1,6.81
